The source of these data is ChEMBL document CHEMBL1201862, “PubChem BioAssay data set” (2004).

In one test the target is Estrogen receptor beta (Homo sapiens, UniProt Q92731).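 Also: recombinant ER-beta bound to coactivator SRC1 peptide in presence of estradiol agonist; inhibitors block coactivator peptide binding and lower the FRET signal.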
In the next test the target is T1, Aminopeptidase N (Plasmodium falciparum FcB1/Columbia, UniProt O96935).
T1 sequence (O96935 whole entry): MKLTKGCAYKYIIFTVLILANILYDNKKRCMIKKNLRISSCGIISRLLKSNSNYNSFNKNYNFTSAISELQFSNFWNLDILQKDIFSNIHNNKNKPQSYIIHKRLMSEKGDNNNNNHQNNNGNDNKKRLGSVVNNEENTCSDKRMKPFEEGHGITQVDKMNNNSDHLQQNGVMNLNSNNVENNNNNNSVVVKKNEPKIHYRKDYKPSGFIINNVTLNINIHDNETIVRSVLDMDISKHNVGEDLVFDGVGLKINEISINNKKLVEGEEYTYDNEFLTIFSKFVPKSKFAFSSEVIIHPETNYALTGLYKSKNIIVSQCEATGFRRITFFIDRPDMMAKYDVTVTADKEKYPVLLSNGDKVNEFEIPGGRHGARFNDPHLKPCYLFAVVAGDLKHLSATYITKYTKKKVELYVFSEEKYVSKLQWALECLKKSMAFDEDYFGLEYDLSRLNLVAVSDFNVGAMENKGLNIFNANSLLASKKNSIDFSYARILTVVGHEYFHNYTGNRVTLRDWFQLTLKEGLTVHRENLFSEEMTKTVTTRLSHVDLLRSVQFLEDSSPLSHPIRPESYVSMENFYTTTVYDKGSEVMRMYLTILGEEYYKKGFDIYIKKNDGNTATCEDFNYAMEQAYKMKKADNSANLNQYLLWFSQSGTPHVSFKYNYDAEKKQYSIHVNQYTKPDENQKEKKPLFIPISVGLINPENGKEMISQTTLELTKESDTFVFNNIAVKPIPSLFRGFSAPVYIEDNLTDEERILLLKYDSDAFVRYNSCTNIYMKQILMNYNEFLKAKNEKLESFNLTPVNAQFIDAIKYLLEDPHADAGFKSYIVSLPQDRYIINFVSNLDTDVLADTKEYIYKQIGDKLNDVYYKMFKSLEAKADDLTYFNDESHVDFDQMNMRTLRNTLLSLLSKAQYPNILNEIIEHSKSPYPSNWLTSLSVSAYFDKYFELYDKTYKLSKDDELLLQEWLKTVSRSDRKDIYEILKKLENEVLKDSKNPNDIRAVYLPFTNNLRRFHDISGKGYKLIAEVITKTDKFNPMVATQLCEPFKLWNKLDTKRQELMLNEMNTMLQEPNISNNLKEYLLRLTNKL
Nature of the test: malaria alanyl aminopeptidase activity blockers – biochemical, fluorogenic H-Leu-NHMec substrate, 1536-well (AID 1445). On the set-up: species or system Plasmodium falciparum 3D7, 3D7.

Test [1] can be described thus: Luminescence Cell-Based Dose Retest to Confirm Inhibitors of Cancer Stem Cells. [Related pubchem assays (depositor defined):AID2717, AID2721]. The format is functional. To be noted: Homo sapiens.
The nature of test [2]: microbe, parasite or virus in culture. To be noted: Mycobacterium tuberculosis. In kind it is functional.
The target of the next test is Paired box protein Pax-8 (Homo sapiens, UniProt Q06710). Nature of the test: PAX8 transcriptional activity inhibition in RMG-I – RMG-I cells, luciferase, cherry-pick, dose response (AID 687027).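 Also: luciferase reporter driven by Pax8 target thyroperoxidase promoter measured by SteadyGlo luminescence.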 The format is functional, cell-based.
The target of test [3] is T2, Histone-lysine N-methyltransferase NSD2 (Homo sapiens, UniProt O96028).
T2 sequence (O96028 whole entry): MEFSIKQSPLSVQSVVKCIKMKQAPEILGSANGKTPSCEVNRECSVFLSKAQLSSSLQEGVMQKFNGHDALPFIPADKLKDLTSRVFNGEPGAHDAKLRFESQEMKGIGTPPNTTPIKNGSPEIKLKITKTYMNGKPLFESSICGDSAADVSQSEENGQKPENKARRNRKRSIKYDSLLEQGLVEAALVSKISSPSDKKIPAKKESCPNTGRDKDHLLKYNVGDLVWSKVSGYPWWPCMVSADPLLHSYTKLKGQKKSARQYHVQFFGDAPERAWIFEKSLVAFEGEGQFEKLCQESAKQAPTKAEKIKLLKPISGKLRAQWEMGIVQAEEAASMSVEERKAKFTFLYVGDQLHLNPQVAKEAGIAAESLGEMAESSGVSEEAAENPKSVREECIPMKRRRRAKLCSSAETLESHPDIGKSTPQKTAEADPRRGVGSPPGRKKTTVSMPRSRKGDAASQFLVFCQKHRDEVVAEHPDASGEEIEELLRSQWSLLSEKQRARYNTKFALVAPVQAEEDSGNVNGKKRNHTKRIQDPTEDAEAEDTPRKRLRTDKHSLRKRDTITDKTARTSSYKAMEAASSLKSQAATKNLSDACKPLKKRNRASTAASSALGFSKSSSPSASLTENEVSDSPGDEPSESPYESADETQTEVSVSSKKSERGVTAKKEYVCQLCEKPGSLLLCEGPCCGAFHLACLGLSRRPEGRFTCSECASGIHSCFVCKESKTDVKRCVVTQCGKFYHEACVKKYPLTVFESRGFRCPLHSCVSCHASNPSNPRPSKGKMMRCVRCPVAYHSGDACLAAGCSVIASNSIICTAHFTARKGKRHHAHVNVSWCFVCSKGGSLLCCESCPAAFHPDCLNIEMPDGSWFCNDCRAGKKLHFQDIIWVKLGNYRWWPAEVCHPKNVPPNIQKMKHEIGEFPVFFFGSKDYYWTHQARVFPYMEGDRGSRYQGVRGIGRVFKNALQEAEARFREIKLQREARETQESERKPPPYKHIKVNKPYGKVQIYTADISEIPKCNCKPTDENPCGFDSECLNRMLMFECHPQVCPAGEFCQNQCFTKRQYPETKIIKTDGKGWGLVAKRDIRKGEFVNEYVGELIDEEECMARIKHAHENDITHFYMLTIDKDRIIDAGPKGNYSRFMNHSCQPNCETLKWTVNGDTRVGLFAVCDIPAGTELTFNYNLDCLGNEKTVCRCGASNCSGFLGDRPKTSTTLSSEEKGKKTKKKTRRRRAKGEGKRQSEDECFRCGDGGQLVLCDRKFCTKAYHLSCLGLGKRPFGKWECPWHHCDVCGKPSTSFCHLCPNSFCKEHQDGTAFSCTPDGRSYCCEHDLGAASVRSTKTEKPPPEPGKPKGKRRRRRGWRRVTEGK
The format is biochemical.

The target of a further test is Genome polyprotein (dengue virus type 2, UniProt P29990). In words: flavivirus cap methylation enzyme inhibition – biochemical, confirmation dose response, primary screen (AID 588689). In kind it is functional.
A short description of test [4]: OVCAR-3 cell viability loss – plate reader, dry powder samples, PAX8 inhibitor project, dose response (AID 743044). The format is functional, cell-based.
Test [5] in a line: A Cell Based Secondary Assay To Explore Cytotoxicity of Compounds that Sensitize Mycobacterium Tuberculosis to Beta-Lactam Antibiotics. In kind it is functional.
Test [6] can be described thus: toxicity to human hepatoma HepG2 cells – cell-based, cherry-picked samples, cytotoxicity control, dose response (AID 1159577). In kind it is functional.
Test [7] in a line: P. falciparum Dd2 growth inhibitors, dose response, SYBR Green, cherry-picked samples (AID 1159567). In kind it is functional, cell-based.
The nature of test [8]: Dd2 parasite growth inhibition in erythrocytes – SYBR Green, dry powder samples, set 9, dose response (AID 1159568). In kind it is functional, cell-based.
A short description of test [9]: growth inhibition of PfATP4-mutant resistant parasites – NITD609-resistant line, SYBR Green, dry powder, dose response (AID 1159571).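 Also: parasites synchronized at ring stage by sorbitol before testing.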 The format is functional, cell-based.
The nature of test [10]: growth inhibition of yeast DHODH-expressing 3D7 parasites – SYBR Green, dry powder samples, dose response (AID 1159570).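 Also: parasite growth measured after 72 hours of compound exposure.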 The format is functional, cell-based.
A short description of test [11]: Dd2 malaria parasite growth inhibition potency – SYBR Green, dry powder samples, dose response (AID 1159566).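 Also: potency for growth inhibition with lower SYBR green DNA signal.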 The format is functional, cell-based.

Calls of active or inactive are those of the source.

Sequence of Estrogen receptor beta (Q92731 whole entry): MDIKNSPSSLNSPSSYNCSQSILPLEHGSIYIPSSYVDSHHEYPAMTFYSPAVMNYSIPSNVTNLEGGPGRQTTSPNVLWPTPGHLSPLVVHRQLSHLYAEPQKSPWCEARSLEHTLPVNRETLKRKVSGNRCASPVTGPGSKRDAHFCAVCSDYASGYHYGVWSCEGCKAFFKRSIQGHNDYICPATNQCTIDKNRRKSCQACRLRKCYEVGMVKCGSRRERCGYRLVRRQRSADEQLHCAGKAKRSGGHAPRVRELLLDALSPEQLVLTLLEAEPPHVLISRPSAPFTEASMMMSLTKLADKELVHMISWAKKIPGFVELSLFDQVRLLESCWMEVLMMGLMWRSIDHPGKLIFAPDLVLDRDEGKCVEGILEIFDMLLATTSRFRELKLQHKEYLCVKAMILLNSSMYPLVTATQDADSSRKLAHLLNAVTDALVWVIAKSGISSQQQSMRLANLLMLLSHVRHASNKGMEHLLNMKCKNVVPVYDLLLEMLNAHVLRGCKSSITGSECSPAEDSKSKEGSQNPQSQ
Sequence of Paired box protein Pax-8 (Q06710 whole entry): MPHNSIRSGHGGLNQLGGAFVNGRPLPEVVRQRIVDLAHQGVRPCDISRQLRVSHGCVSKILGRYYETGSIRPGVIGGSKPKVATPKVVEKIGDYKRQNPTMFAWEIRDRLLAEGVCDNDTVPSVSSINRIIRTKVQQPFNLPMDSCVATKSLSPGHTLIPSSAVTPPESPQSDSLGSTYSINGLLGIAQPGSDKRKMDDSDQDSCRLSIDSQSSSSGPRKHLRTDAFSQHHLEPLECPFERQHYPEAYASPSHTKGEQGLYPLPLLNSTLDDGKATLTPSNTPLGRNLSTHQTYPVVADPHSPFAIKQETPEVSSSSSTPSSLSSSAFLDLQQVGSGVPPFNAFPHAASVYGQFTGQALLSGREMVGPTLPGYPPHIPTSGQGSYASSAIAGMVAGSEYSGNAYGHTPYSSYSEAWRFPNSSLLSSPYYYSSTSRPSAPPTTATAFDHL
Sequence of Genome polyprotein (P29990 2492-3391 limits assumed): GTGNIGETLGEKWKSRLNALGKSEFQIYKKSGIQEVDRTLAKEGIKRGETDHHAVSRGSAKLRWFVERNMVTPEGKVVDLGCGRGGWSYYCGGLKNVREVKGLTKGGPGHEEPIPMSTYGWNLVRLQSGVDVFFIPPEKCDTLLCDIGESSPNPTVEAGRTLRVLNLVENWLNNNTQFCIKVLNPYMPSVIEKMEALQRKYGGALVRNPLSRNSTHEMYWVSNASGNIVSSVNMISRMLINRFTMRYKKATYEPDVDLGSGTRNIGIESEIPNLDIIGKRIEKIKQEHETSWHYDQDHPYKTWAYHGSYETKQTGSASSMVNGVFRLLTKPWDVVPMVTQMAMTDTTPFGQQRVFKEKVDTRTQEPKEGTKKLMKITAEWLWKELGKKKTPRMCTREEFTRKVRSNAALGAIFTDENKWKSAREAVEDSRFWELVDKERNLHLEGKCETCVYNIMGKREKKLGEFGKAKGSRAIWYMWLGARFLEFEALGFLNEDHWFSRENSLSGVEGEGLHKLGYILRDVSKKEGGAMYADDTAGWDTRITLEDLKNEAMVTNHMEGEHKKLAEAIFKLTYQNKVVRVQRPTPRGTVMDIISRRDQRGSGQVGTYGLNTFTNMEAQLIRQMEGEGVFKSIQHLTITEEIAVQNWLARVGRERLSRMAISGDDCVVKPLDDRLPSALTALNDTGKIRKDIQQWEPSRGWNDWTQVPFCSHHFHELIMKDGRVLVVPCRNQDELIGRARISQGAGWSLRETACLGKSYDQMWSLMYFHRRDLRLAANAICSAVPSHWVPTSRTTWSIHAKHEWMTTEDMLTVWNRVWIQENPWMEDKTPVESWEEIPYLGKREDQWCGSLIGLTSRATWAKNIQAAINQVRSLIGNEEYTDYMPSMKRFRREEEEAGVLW

The term IC50 denotes the midpoint of a concentration-inhibition curve. `COc1ccc(C(C(=O)NC2CCCC2)N(C(=O)c2ccco2)c2ccc3c(c2)OCO3)cc1OC` (centres undefined): the IC50 against Estrogen receptor beta was > 50 µM (not active).
On to `O=C(Cc1cc(=O)oc2cc(O)ccc12)NCC1CCC(C(=O)O)CC1` (centres undefined), for which the IC50 on Aminopeptidase N was 65.9 µM (active).
For the molecule `O=C(NCc1cccs1)C1CCN(S(=O)(=O)c2ccc(Cl)cc2)CC1`, on Aminopeptidase N, the IC50 was 89.3 µM (active).
Same read-out and setting: next, `O=C(NCc1cccc(F)c1)C1CCN(C(=O)c2sccc2-n2cccc2)CC1`: 100 µM (active).
For orientation: AC50 means the concentration at which the activity in the assay is half-maximal. For `CCCCOC(=O)c1c(C)oc2ccc(NS(=O)(=O)c3ccc4c5c(cccc35)C(=O)N4)cc12`, the AC50 in test [1] was 9.4 µM (active). For the same molecule, the CC50 in test [2] is > 40 µM (active). Also, the IC50 on Estrogen receptor beta was 13.5 µM (active).
Consider `CCCCn1c(N)c(N(CCC(C)C)C(=O)COC(=O)c2ccc([N+](=O)[O-])s2)c(=O)[nH]c1=O`, for which the AC50 on Paired box protein Pax-8 is 8.14 µM (active); in test [3], 12.3 µM (active).
For `CC(C)Cn1c(-c2cccs2)nc2ccccc21`, the IC50 on Estrogen receptor beta is listed as > 50 µM (not active).
On to `O=C1/C(=C/c2nc3ccccc3[nH]2)SC(=S)N1NS(=O)(=O)c1ccccc1`, for which the IC50 is 23.7 µM (active) at Aminopeptidase N and 54.7 µM (active) at Genome polyprotein.
Consider `CCN(CC)CCNC(=O)c1ccc(CS(=O)(=O)c2ccccc2C)o1`, for which the AC50 in test [3] is > 20 µM (inactive).
With `N#Cc1ccc(-c2ccc([C@@H]3[C@@H]4CN(C(=O)c5ccc6c(c5)OCO6)C[C@H]3N4)cc2)cc1`, the values for the AC50 (in [4]; at Paired box protein Pax-8) were 29.1 µM (active) and 8.39 µM (active), respectively.
On to `O=C(Cc1cccnc1)N1CCCCN2[C@H](C1)[C@H](c1ccc(C#CC3CCCC3)cc1)[C@@H]2CO`, for which the AC50 in test [4] was 9.02 µM (active); on Paired box protein Pax-8, 5.07 µM (active).
As to `CC1=NN(c2ccccc2)C(=O)C1/C=N/c1ccccc1O` (centres undefined), the IC50 at Aminopeptidase N was 12.8 µM (active). Further, in test [5], the CC50 was > 40 µM (active).
As for `CC(C)N(C[C@H]1N[C@H](CO)[C@@H]1c1ccc(C2=CCCCC2)cc1)C(=O)CN(C)C`, the AC50 in test [6] was 10.8 µM (active); in test [7], 1.34 µM (active).
In the case of `O=C(Nc1ccc2c(c1)[C@@H]1C[C@@H](CC(=O)N3CCc4ccccc4C3)O[C@@H](CO)[C@@H]1O2)c1ccc2c(c1)OCO2`, in [8], the AC50 is 13 µM (active).
In the case of `Cc1nc(N2[C@H](CO)[C@H](c3ccccc3)[C@H]2CNCC2CCCC2)sc1C`, the AC50 in [9] was 1.42 µM (active); in [6], > 39 µM (inactive); in test [10], 1.4 µM (active); in test [7], 2.26 µM (active); in [11] it was 1.12 µM (active).
As to `COc1ccccc1NC(=O)N1C[C@@H]2N[C@H](C1)[C@H]2c1ccc(/C=C/c2ccccc2)cc1`, the AC50 was 4.56 µM (active) in test [8] and 3.04 µM (active) in test [7].
Consider `N#Cc1cccc(-c2ccc([C@@H]3[C@@H]4CN(Cc5ccccc5)C[C@H]3N4)cc2)c1`, for which the AC50 in test [6] was 15.4 µM (active); in [7], 5.57 µM (active).
The matching figures for `C[C@H](CO)N1C[C@H](C)[C@H](CN(C)Cc2ccc(-c3ccccc3)cc2)OCc2ccccc2-c2ccccc2C1=O`: > 39 µM (inactive) and 5.19 µM (active).
Regarding `O=C(Nc1ccc(Cl)cc1)N1C[C@@H]2[C@H](c3ccccc31)[C@@H](CO)N2CC1CCCCC1`, in test [8], the AC50 is 5.79 µM (active).
As for `Cc1cccc(-c2ccc([C@H]3[C@@H](CO)N4CCCCN(CCC(F)(F)F)C[C@H]34)cc2)c1`, the AC50 in [6] is 8.62 µM (active); in test [7], 1.01 µM (active).
`CO[C@H]1CN(C)C(=O)c2cc(NC(=O)c3cccc(F)c3)ccc2OC[C@H](C)N(C)C[C@H]1C`: the AC50 in test [8] was 22.8 µM (active).
As for `O=C(c1ccc2c(c1)OCO2)N1C[C@@H]2N[C@H](C1)[C@@H]2c1ccc(/C=C/c2ccccc2)cc1`, the AC50 in test [6] is 11.5 µM (active); in test [7], 4.03 µM (active).
